Experimental data reported in patent publication US20120083522A1, “MODULATION OF INFLAMMATORY RESPONSES BY FACTOR XI” (Isis Pharmaceuitcals, inc., priority 2009, published 2012).
In the oligonucleotide strings, read from the 5' end, every base follows the letter of its sugar. An asterisk marks phosphorothioate; unmarked linkages are phosphodiester. Other units and linkages are bracketed, terminal groups are in braces. A string of capitals states the bases alone. e = 2'-O-(2-methoxyethyl) (MOE); [5mC] = 5-methylcytosine; d = 2'-deoxy (DNA)

Assays:
Factor XI mRNA = assay: Cynomolgus monkeys, escalating doses: liver Factor XI RNA analysis (Example 29); type: in vivo; conditions: escalating doses 5, 10, 25 mg/kg s.c. over 12 weeks, day 85
Description: Groups, each consisting of two male and three female monkeys, were injected subcutaneously with ISIS 416838, ISIS 416850, ISIS 416858, ISIS 416864, or ISIS 417002 in escalating doses. Antisense oligonucleotide was administered to the monkeys at 5 mg/kg three times per a week for week 1; 5 mg/kg twice per week for weeks 2 and 3; 10 mg/kg three times per week for week 4; 10 mg/kg twice per week for weeks 5 and 6; 25 mg/kg three times per week for week 7; and 25 mg/kg twice per week for weeks 8, 9, 10, 11, and 12. One control group, consisting of two male and three female monkeys, was injected subcutaneously with PBS according to the same dosing regimen. An additional experimental group, consisting of two male and three female monkeys, was injected subcutaneously with ISIS 416850 in a chronic, lower dose regimen. Antisense oligonucleotide was administered to the monkeys at 5 mg/kg three times per week for week 1; 5 mg/kg twice per week for week 2 and 3; 10 mg/kg three times per week for week 4; and 10 mg/kg twice per week for weeks 5 to 12. Body weights were measured weekly. Blood samples were collected 14 days and 5 days before the start of treatment and subsequently once per week for Factor XI protein activity analysis in plasma and measurement of various hematologic factors. On day 85, the monkeys were euthanized by exsanguination while under deep anesthesia, and organs harvested for further analysis.
On day 85, RNA was extracted from liver tissue for real-time PCR analysis of Factor XI using primer probe set LTS00301 (forward primer sequence […], designated herein as SEQ ID NO 271; reverse primer sequence […], designated herein as SEQ ID NO: 272; and probe sequence TGCAGGCACAGCATCCCAGTGTTCTX, wherein X is a fluorphore, designated herein as SEQ ID NO. 273). Results are presented as percent inhibition of Factor XI, relative to PBS control.

human Factor XI mRNA [1] = assay: Dose-dependent inhibition and IC50 in HepG2 cells, microwalk gapmers, electroporation (Example 16); type: cell-based
Description: These gapmers were tested at various doses in HepG2 cells. Cells were plated at a density of 20,000 cells per well and transfected using electroporation with 375 nM, 750 nM, 1,500 nM, 3,000 nM, 6,000 nM and 12,000 nM concentrations of antisense oligonucleotide, as specified in Table 54. After a treatment period of approximately 16 hours, RNA was isolated from the cells and Factor XI mRNA levels were measured by quantitative real-time PCR. Human Factor XI primer probe set RTS 2966 was used to measure mRNA levels. Factor XI mRNA levels were adjusted according to total RNA content, as measured by RIBOGREEN. Results are presented as percent inhibition of Factor XI, relative to untreated control cells.
ISIS 416850, ISIS 416858, ISIS 445522, and ISIS 445531 (see Table 52 above) were re-tested in vitro along with the microwalk gapmers under the same conditions described above.
The chimeric antisense oligonucleotides in Table 53 were designed as 3-8-3 MOE, 4-8-4 MOE, 2-10-2 MOE, 3-10-3 MOE, or 4-10-4 MOE gapmers. The 3-8-3 gapmer is 14 nucleotides in length, wherein the central gap segment is comprised of eight 2′-deoxynucleotides and is flanked on both sides (in the 5′ and 3′ directions) by wings comprising three nucleotides each. The 4-8-4 gapmer is 16 nucleotides in length, wherein the central gap segment is comprised of eight 2′-deoxynucleotides and is flanked on both sides (in the 5′ and 3′ directions) by wings comprising four nucleotides each. The 2-10-2 gapmer is 14 nucleotides in length, wherein the central gap segment is comprised of ten 2′-deoxynucleotides and is flanked on both sides (in the 5′ and 3′ directions) by wings comprising two nucleotides each. The 3-10-3 gapmer is 16 nucleotides in length, wherein the central gap segment is comprised of ten 2′-deoxynucleotides and is flanked on both sides (in the 5′ and 3′ directions) by wings comprising three nucleotides each. The 4-10-4 gapmer is 18 nucleotides in length, wherein the central gap segment is comprised of ten 2′-deoxynucleotides and is flanked on both sides (in the 5′ and 3′ directions) by wings comprising four nucleotides each. For each of the motifs (3-8-3, 4-8-4, 2-10-2, 3-10-3, and 4-10-4), each nucleotide in the 5′ wing segment and each nucleotide in the 3′ wing segment has a 2′-MOE modification. The internucleoside linkages throughout each gapmer are phosphorothioate (P═S) linkages. All cytidine residues throughout each gapmer are 5-methylcytidines. “Human Target start site” indicates the 5′-most nucleotide to which the gapmer is targeted in the human sequence. “Human Target stop site” indicates the 3′-most nucleotide to which the gapmer is targeted in the human sequence. Each gapmer listed in Table 53 is targeted to SEQ ID NO: 1 (GENBANK Accession No. NM_000128.3). Each gapmer is Table 53 is also fully cross-reactive with the rhesus monkey Factor XI gene sequence, designated herein as SEQ ID NO: 274 (exons 1-15 GENBANK Accession No. NW—001118167.1). ‘Rhesus monkey start site’ indicates the 5′-most nucleotide to which the gapmer is targeted in the rhesus monkey sequence. ‘Rhesus monkey stop site’ indicates the 3′-most nucleotide to which the gapmer is targeted to the rhesus monkey sequence.
The first two listed gapmers in Table 54 are the original gapmers (ISIS 416850 and ISIS 416858) from which the remaining gapmers were designed via microwalk and are designated by an asterisk.

human Factor XI mRNA [2] = assay: Dose-dependent inhibition and IC50 in HepG2 cells, electroporation (Example 15); type: cell-based
Description: Cells were plated at a density of 20,000 cells per well and transfected using electroporation with 123.46 nM, 370.37 nM, 1,111.11 nM, 3,333.33 nM and 10,000 nM concentrations of antisense oligonucleotide, as specified in Table 52. After a treatment period of approximately 16 hours, RNA was isolated from the cells and Factor XI mRNA levels were measured by quantitative real-time PCR. Human Factor XI primer probe set RTS 2966 was used to measure mRNA levels. Factor XI mRNA levels were adjusted according to total RNA content, as measured by RIBOGREEN. Results are presented as percent inhibition of Factor XI, relative to untreated control cells.

Row | Substance | % inhibition of Factor XI mRNA in liver relative to the PBS control (Factor XI mRNA) | percent inhibition of Factor XI mRNA (human Factor XI mRNA [1]; electroporation, 375 nM) | percent inhibition of Factor XI mRNA (human Factor XI mRNA [1]; electroporation, 750 nM) | percent inhibition of Factor XI mRNA (human Factor XI mRNA [1]; electroporation, 1,500 nM) | percent inhibition of Factor XI mRNA (human Factor XI mRNA [1]; electroporation, 3,000 nM) | percent inhibition of Factor XI mRNA (human Factor XI mRNA [1]; electroporation, 6,000 nM) | percent inhibition of Factor XI mRNA (human Factor XI mRNA [1]; electroporation, 12,000 nM) | percent inhibition of Factor XI mRNA (human Factor XI mRNA [2]; electroporation, 123.47 nM) | percent inhibition of Factor XI mRNA (human Factor XI mRNA [2]; electroporation, 370.37 nM) | percent inhibition of Factor XI mRNA (human Factor XI mRNA [2]; electroporation, 1,111.11 nM) | percent inhibition of Factor XI mRNA (human Factor XI mRNA [2]; electroporation, 3,333.33 nM) | percent inhibition of Factor XI mRNA (human Factor XI mRNA [2]; electroporation, 10,000.0 nM)
1 | 416838 (antisense GCAACCGGGATGATGAGTGC; 5-10-5 gapmer, wing sugar chemistry not given here, further chemistry not given here) [compound 416838] | 37% |  |  |  |  |  |  |  |  |  |  | 
2 | 416850 (antisense TGCACAGTTTCTGGCAGGCC; 5-10-5 gapmer, wing sugar chemistry not given here, further chemistry not given here) [compound 416850] | 84% | 40% | 59% | 69% | 87% | 90% | 95% | 0% | 12% | 36% | 74% | 73%
3 | 416858 (antisense ACGGCATTGGTGCACAGTTT; 5-10-5 gapmer, wing sugar chemistry not given here, further chemistry not given here) [compound 416858] | 90% | 31% | 35% | 78% | 85% | 90% | 93% | 0% | 27% | 36% | 64% | 70%
4 | 416864 (antisense GGCAGCGGACGGCATTGGTG; 5-10-5 gapmer, wing sugar chemistry not given here, further chemistry not given here) [compound 416864] | 44% |  |  |  |  |  |  |  |  |  |  | 
5 | 417002 (antisense GGTGCACAGTTTCTGGCAGG; 2-13-5 gapmer, wing sugar chemistry not given here, further chemistry not given here) [compound 417002] | 57% |  |  |  |  |  |  |  |  |  |  | 
6 | 445522 (antisense eG*e[5mC]*eA*e[5mC]*eA*dG*dT*dT*dT*d[5mC]*dT*dG*dG*e[5mC]*eA*eG*eG*e[5mC]) [compound 445522] |  | 59% | 71% | 83% | 82% | 81% | 92% | 0% | 0% | 44% | 63% | 74%
7 | 445531 (antisense eG*eG*e[5mC]*eA*eT*dT*dG*dG*dT*dG*d[5mC]*dA*d[5mC]*eA*eG*eT*eT*eT) [compound 445531] |  | 44% | 64% | 78% | 86% | 91% | 93% | 8% | 16% | 52% | 61% | 77%
